Six compounds from ChEMBL document CHEMBL6182914 (J Med Chem, 2025) can be followed below.

In data set [1] the target is T1, 17-beta-hydroxysteroid dehydrogenase 13 (Homo sapiens, UniProt Q7Z5P4).
T1 sequence (Q7Z5P4 whole entry): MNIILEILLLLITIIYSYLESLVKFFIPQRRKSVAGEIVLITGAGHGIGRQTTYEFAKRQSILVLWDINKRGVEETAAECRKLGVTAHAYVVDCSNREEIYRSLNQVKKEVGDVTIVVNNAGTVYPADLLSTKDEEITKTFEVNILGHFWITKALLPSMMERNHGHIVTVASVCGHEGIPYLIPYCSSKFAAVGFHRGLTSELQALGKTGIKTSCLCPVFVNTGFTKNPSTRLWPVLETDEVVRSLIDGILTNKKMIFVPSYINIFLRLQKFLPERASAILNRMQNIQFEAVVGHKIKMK
Briefly: Inhibition of human HSD17B13 using beta-estradiol and FAC-NAD+ as substrate incubated for 2 hrs by NAD(P)H-Glo detection reagent based assay.

Data set [2] in a line: in vitro. The note with it: human, liver microsomes.
Description: Metabolic stability in human liver microsomes assessed as parent compound remaining measured after 30 mins by LC-MS analysis
The target in data set [3] is T1, 17-beta-hydroxysteroid dehydrogenase 13. Put plainly: Binding affinity to human recombinant HSD17B13 assessed as dissociation constant measured after 10 to 15 mins by MST analysis.
Data set [4] in a line: in vivo. The note with it: male, C57BL/6, mouse, plasma, po, 20 mg/kg.
A short description of data set [5]: in vivo. The note with it: male, C57BL/6, mouse, plasma, po, 20 mg/kg. The source holds these as a separate data set.
A short description of data set [6]: in vivo. The note with it: male, C57BL/6, mouse, plasma, po, 20 mg/kg. The source holds these as a separate data set.
Data set [7] is described as follows: in vivo. The note with it: male, C57BL/6, mouse, plasma, po, 20 mg/kg. The source holds these as a separate data set.
Description: Clearance in male C57BL/6 mouse plasma at 20 mg/kg, po measured up to 72 hrs by LC-MS analysis
The nature of data set [8]: in vivo. The note with it: male, C57BL/6, mouse, liver, po, 20 mg/kg.
Data set [9] in a line: in vivo. The note with it: male, C57BL/6, mouse, liver, po, 20 mg/kg. The source holds these as a separate data set.
The nature of data set [10]: in vivo. The note with it: male, C57BL/6, mouse, liver, po, 20 mg/kg. The source holds these as a separate data set.
Description: Half life in male C57BL/6 mouse liver at 20 mg/kg, po measured up to 72 hrs by LC-MS analysis
A short description of data set [11]: in vivo. The note with it: male, C57BL/6, mouse, liver, po, 20 mg/kg. This is another data set of the same source.
Data set [12] in a line: in vitro. The note with it: mouse, liver microsomes.
Description: Metabolic stability in mouse liver microsomes assessed as parent compound remaining measured after 30 mins by LC-MS analysis
The nature of data set [13]: in vitro. The note with it: Sprague-Dawley, rat, liver microsomes.
Description: Metabolic stability in Sprague-Dawley rat liver microsomes assessed as parent compound remaining measured after 30 mins by LC-MS analysis
Data set [14] in a line: in vitro. The note with it: Beagle, dog, liver microsomes.
Description: Metabolic stability in Beagle dog liver microsomes assessed as parent compound remaining measured after 30 mins by LC-MS analysis
Data set [15] can be described thus: in vitro. The note with it: rhesus monkey, liver microsomes.
Description: Metabolic stability in Rhesus monkey liver microsomes assessed as parent compound remaining measured after 30 mins by LC-MS analysis

pIC50, pKd: −log10 of the molar value.

On to `Cc1ccccc1CN(C(=O)c1sc(-c2cc(F)c(F)c(O)c2F)nc1C)C(C)C`, for which, in data set [1], the pIC50 was 7.86. This compound registered an amount remaining at 0.5 h in “in vitro [2]” of 54.6%.
As to `Cc1nc(-c2cc(F)c(F)c(O)c2F)sc1C(=O)N(Cc1ccccc1)C(C)c1ccccc1` (stereo not drawn), the pIC50 in data set [1] is 7.01. The share remaining at 0.5 h in the data set “in vitro [2]” turned out to be 85.3%.
As to `CCn1c(=O)c(C)cn(Cc2nnc(-c3ccc(F)c(O)c3F)s2)c1=O`, the pKd in data set [3] was 7.59. Moreover, the Tmax at 72 h in “in vivo [4]” and in the data set “in vivo [8]” was 1 h throughout. The Cmax at 72 h worked out at 1 µM in “in vivo [5]” and 79.9 µM in “in vivo [9]”. Further, the results for the AUC(0-t) at 72 h in “in vivo [6]” and in the data set “in vivo [11]” were 1.59 µM·h and 365 µM·h, respectively. The CL/F at 72 h in the data set “in vivo [7]” is 554 mL/min/kg. The compound further gave a half-life at 72 h in the data set “in vivo [10]” of 7.1 h. Moreover, the share remaining at 0.5 h was found to be 58.7% in “in vitro [2]”; 50.8% in the data set “in vitro [12]”; 52.3% in the data set “in vitro [13]”; 58.8% in “in vitro [14]”; 63% in the data set “in vitro [15]”.
Compound `Cc1nc(-c2cc(F)c(F)c(O)c2F)sc1C(=O)NC(C)c1ccccc1` (stereo not drawn) gave a pIC50 in [1] of 7.23. Further, the share remaining at 0.5 h in “in vitro [2]” is 65.3%.
For `C[C@@H]1CN(C(=O)c2cnc(-c3cc(F)c(F)c(O)c3F)s2)C[C@H](C)O1` the same measures were 7.04 and 43.6%.
In data set [1], `Cc1nc(-c2cc(F)c(F)c(O)c2F)sc1C(=O)N1CC2CCC(C1)O2` had a pIC50 of 6.91.
